Reference: PubChem BioAssay AID1845198 (Molecular Pharmacology Branch, DTP, NCI, 2023)

System: 425362-245-T-J1 tumor spheroids, viability % test/control
Test: Anticancer human tumor 425362-245-T-J1 patient-derived melanoma cell line growth inhibition
Conditions: spheroids with HUVEC and MSC; for IC50: curve of first compound; for viability, T/C: stronger effect = lower value
Procedure, shortened: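 Single agents and combinations were tested on spheroids built from tumor cells plus HUVEC and hMSC, at half-log dilutions starting at or near clinical Cmax, else 10 microM; final DMSO 0.25% (v/v).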
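Also: spheroids exposed to agents for 7 days.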

CC(C)n1c(=O)n(C)c2cnc3cc(F)c(-c4ccc(OCCCN5CCCCC5)nc4)cc3c21 + CC[C@@]1(O)C(=O)OCc2c1cc1n(c2=O)Cc2cc3c(CN(C)C)c(O)ccc3nc2-1 showed an IC50 (second compound 0.003 µM) of under 0.0316 µM, an IC50 (second compound 0.00949 µM) of under 0.0316 µM and an IC50 (second compound 0.03 µM) of under 0.0316 µM. For the same molecule, the IC50 (second compound 0.0949 µM) was under 0.0316 µM, the IC50 (second compound 0.3 µM) was under 0.0316 µM and the viability, T/C (second compound 0.003 µM, first compound 0.0316 µM) was 14.6%. It also gave a viability, T/C (second compound 0.003 µM, first compound 0.1 µM) of 10.4%, a viability, T/C (second compound 0.003 µM, first compound 0.316 µM) of 7.7% and a viability, T/C (second compound 0.003 µM, first compound 1 µM) of 6.29%. For the same molecule, the viability, T/C (second compound 0.003 µM, first compound 3.16 µM) was 8.79%, the viability, T/C (second compound 0.003 µM, first compound 10 µM) was 4.08% and the viability, T/C (second compound 0.00949 µM, first compound 0.0316 µM) was 6.58%. For the same molecule, the viability, T/C (second compound 0.00949 µM, first compound 0.1 µM) was 4.04%, the viability, T/C (second compound 0.00949 µM, first compound 0.316 µM) was 3.89% and the viability, T/C (second compound 0.00949 µM, first compound 1 µM) was 3.22%. It also gave a viability, T/C (second compound 0.00949 µM, first compound 3.16 µM) of 3.36%, a viability, T/C (second compound 0.00949 µM, first compound 10 µM) of 2.89% and a viability, T/C (second compound 0.03 µM, first compound 0.0316 µM) of 5.67%. It also gave a viability, T/C (second compound 0.03 µM, first compound 0.1 µM) of 4.26%, a viability, T/C (second compound 0.03 µM, first compound 0.316 µM) of 4.37% and a viability, T/C (second compound 0.03 µM, first compound 1 µM) of 4.1%. It also gave a viability, T/C (second compound 0.03 µM, first compound 3.16 µM) of 5.65%, a viability, T/C (second compound 0.03 µM, first compound 10 µM) of 2.47% and a viability, T/C (second compound 0.0949 µM, first compound 0.0316 µM) of 7.71%. It also gave a viability, T/C (second compound 0.0949 µM, first compound 0.1 µM) of 4.71%, a viability, T/C (second compound 0.0949 µM, first compound 0.316 µM) of 4.3% and a viability, T/C (second compound 0.0949 µM, first compound 1 µM) of 3.67%. The viability, T/C (second compound 0.0949 µM, first compound 3.16 µM) was 6.89%, the viability, T/C (second compound 0.0949 µM, first compound 10 µM) was 2.28% and the viability, T/C (second compound 0.3 µM, first compound 0.0316 µM) was 2.08%. For the same molecule, the viability, T/C (second compound 0.3 µM, first compound 0.1 µM) was 2.15%, the viability, T/C (second compound 0.3 µM, first compound 0.316 µM) was 1.84% and the viability, T/C (second compound 0.3 µM, first compound 1 µM) was 1.73%. For the same molecule, the viability, T/C (second compound 0.3 µM, first compound 3.16 µM) was 1.54% and the viability, T/C (second compound 0.3 µM, first compound 10 µM) was 1.56%.
For COc1ccc([C@@H](O)c2cc(-c3ncnc4cc(N5CCOCC5)ccc34)c(F)cc2Cl)nn1 + Cn1nnc2c(C(N)=O)ncn2c1=O, the IC50 (second compound 1 µM) was 2.3 µM, the IC50 (second compound 3.16 µM) was 2.57 µM and the IC50 (second compound 10 µM) was 2.5 µM. For the same molecule, the IC50 (second compound 31.6 µM) was 2.67 µM, the IC50 (second compound 100 µM) was 2.1 µM and the viability, T/C (second compound 1 µM, first compound 0.0316 µM) was 91%. The viability, T/C (second compound 1 µM, first compound 0.1 µM) was 95.6%, the viability, T/C (second compound 1 µM, first compound 0.316 µM) was 87.5% and the viability, T/C (second compound 1 µM, first compound 1 µM) was 70.2%. For the same molecule, the viability, T/C (second compound 1 µM, first compound 3.16 µM) was 42.5%, the viability, T/C (second compound 1 µM, first compound 10 µM) was 19.1% and the viability, T/C (second compound 3.16 µM, first compound 0.0316 µM) was 101%. The viability, T/C (second compound 3.16 µM, first compound 0.1 µM) was 111%, the viability, T/C (second compound 3.16 µM, first compound 0.316 µM) was 104% and the viability, T/C (second compound 3.16 µM, first compound 1 µM) was 76.2%. It also gave a viability, T/C (second compound 3.16 µM, first compound 3.16 µM) of 45.7%, a viability, T/C (second compound 3.16 µM, first compound 10 µM) of 20.3% and a viability, T/C (second compound 10 µM, first compound 0.0316 µM) of 111%. For the same molecule, the viability, T/C (second compound 10 µM, first compound 0.1 µM) was 117%, the viability, T/C (second compound 10 µM, first compound 0.316 µM) was 113% and the viability, T/C (second compound 10 µM, first compound 1 µM) was 74.8%. For the same molecule, the viability, T/C (second compound 10 µM, first compound 3.16 µM) was 46.6%, the viability, T/C (second compound 10 µM, first compound 10 µM) was 22.2% and the viability, T/C (second compound 31.6 µM, first compound 0.0316 µM) was 110%. The viability, T/C (second compound 31.6 µM, first compound 0.1 µM) was 109%, the viability, T/C (second compound 31.6 µM, first compound 0.316 µM) was 94% and the viability, T/C (second compound 31.6 µM, first compound 1 µM) was 78.9%. For the same molecule, the viability, T/C (second compound 31.6 µM, first compound 3.16 µM) was 44%, the viability, T/C (second compound 31.6 µM, first compound 10 µM) was 20.8% and the viability, T/C (second compound 100 µM, first compound 0.0316 µM) was 101%. It also gave a viability, T/C (second compound 100 µM, first compound 0.1 µM) of 84.7%, a viability, T/C (second compound 100 µM, first compound 0.316 µM) of 82.2% and a viability, T/C (second compound 100 µM, first compound 1 µM) of 65.1%. It also gave a viability, T/C (second compound 100 µM, first compound 3.16 µM) of 40.3% and a viability, T/C (second compound 100 µM, first compound 10 µM) of 20.5%.
